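Method: 48-hour compound exposure of cells in 96-well plates, five concentrations, linear interpolation of endpoints. Abbreviation: GI50, concentration required for 50% inhibition of growth. TGI marks complete inhibition of growth.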

Holding throughout (test): NCI-60 cell line screen, 48 h
The subject of test [1] is SN12C renal.
Test [2] has as its system SF-539 CNS.
The subject of test [3] is SNB-19 CNS.
Test [4] relates to OVCAR-5 ovarian.
Test [5] concerns SNB-75 CNS.
Test [6] deals with SK-MEL-2 melanoma.
Test [7] has as its system OVCAR-3 ovarian.
In test [8] the test system is OVCAR-8 ovarian.
In test [9] the test system is K-562 leukemia.
Test [10] concerns TK-10 renal.

With `Cc1nc2c(nc1C)C(=O)c1ccccc1C2=O`, the TGI in test [1] came out at 6.4 µM; in test [2], 11.2 µM; in test [3], 19.4 µM; in [4], 9.62 µM; in [5], 6.15 µM; in [6], 6.57 µM. Moreover, the TGI was determined as 13.3 µM in [7], 42.9 µM in test [8], 32.1 µM in test [9] and 79.5 µM in [10].
Consider `CCc1ccc2c(c1)C(=O)c1c-2n(CCCBr)c(=O)c2cc([N+](=O)[O-])ccc12`, for which the GI50 is greater than 50 µM in [1]; 28.4 µM in test [2]; 30.8 µM in test [3]; greater than 50 µM in test [4]; 7.88 µM in [5]; 31.9 µM in test [6]. The GI50 in test [7] was greater than 50 µM; in test [8], greater than 50 µM; in test [9] it was greater than 50 µM; in test [10], 15 µM. The TGI in test [1] is greater than 50 µM; in test [2], greater than 50 µM; in test [3], greater than 50 µM; in test [4], greater than 50 µM; in test [5], 19.9 µM; in test [6], greater than 50 µM. For the same compound, the TGI in test [7], in test [8], in test [9] and in [10] was greater than 50 µM throughout.
As for `COc1cc2nc(C)nc(N[C@H](C)c3cc(N)cc(C(F)(F)F)c3)c2cc1O[C@H]1CCOC1`, the GI50 in test [1] is 6.46 µM; in test [2], 12.4 µM; in test [3] it was 12.7 µM; in test [4], 13.4 µM; in [5], 10.4 µM; in test [6], 18 µM. Also, the GI50 in test [7] was 15.6 µM; in test [8], 15.5 µM; in test [9], 0.489 µM; in test [10], 2.9 µM. Moreover, the TGI in [1] was determined as 21.9 µM; in [2] it was 25.1 µM; in test [3], 27.4 µM; in [4], 28.5 µM; in test [5] it was 23.3 µM; in test [6] it was 34.7 µM. Also, the TGI in test [7] came out at 38.4 µM; in test [8], 42.8 µM; in test [9], 23.2 µM; in test [10] it was 20.6 µM.
`CCOC(=O)Nc1nc2ccc(OCC)cc2s1`: the GI50 in [1] is greater than 93.4 µM; in [2] it was 20.2 µM; in [3], greater than 100 µM; in test [4], greater than 100 µM; in [5] it was 22.7 µM; in test [6] it was 40.3 µM. Further, the GI50 in [7] was greater than 41.6 µM; in test [8] it was 47.7 µM; in test [9] it was 3.17 µM; in [10], greater than 100 µM. Besides, the TGI in [1], in test [2], in test [3], in test [4], in test [5] and in [6] was greater than 100 µM throughout. Also, the TGI in test [7], in test [8], in test [9] and in [10] was greater than 100 µM throughout.
In the case of `CC1=C(C(=O)Nc2ccc(F)c(Cl)c2)C(c2ccc(Cl)cc2)NC(=O)N1` (stereo not given), the GI50 in test [1] was 17.8 µM; in test [2], 14 µM; in [3], 33.1 µM; in test [4], 19.5 µM; in test [5], 5.28 µM; in test [6], 19.1 µM. Further, the GI50 in test [7] is 17.8 µM; in test [8], 18.4 µM; in [9] it was 0.0173 µM; in test [10], 7.4 µM. The TGI in test [1] is 32.2 µM; in [2], 29.7 µM; in test [3], greater than 100 µM; in test [4], 42.9 µM; in test [5] it was 30.5 µM; in test [6], 35.3 µM. The TGI in test [7] turned out to be 38.4 µM; in [8] it was 36.8 µM; in test [9], 21.3 µM; in test [10], 25.4 µM.
In the case of `COc1cc2c(c(OC)c1O)C(=O)C(OC)C(c1ccc(O)c(O)c1)O2` (stereo not given), the GI50 in test [1] was 0.426 µM; in test [2], 0.0798 µM; in [3], 0.275 µM; in test [4], 2.27 µM; in [5], 0.0405 µM; in test [6], 1.28 µM. The GI50 was 0.343 µM in test [7], 0.484 µM in test [8], 0.048 µM in test [9] and 40 µM in test [10]. Also, the TGI was greater than 100 µM in test [1]; 4.56 µM in [2]; greater than 100 µM in [3]; greater than 100 µM in [4]; greater than 79.3 µM in test [5]; greater than 100 µM in test [6]. Further, the TGI in test [7] was greater than 32.7 µM; in test [8] it was greater than 100 µM; in test [9], greater than 100 µM; in test [10], greater than 100 µM.
`COc1ccc2nc3cc(Cl)ccc3c(Sc3ccccc3[N+](=O)[O-])c2c1`: the TGI in [1] is 75.7 µM; in [2], greater than 100 µM; in [3] it was greater than 100 µM; in [4], greater than 100 µM; in [5], 37.3 µM; in test [6], greater than 100 µM. The TGI in [7], in [8], in test [9] and in [10] was greater than 100 µM each time.
Take `COc1ccc(-c2cc(-c3ccc(Nc4nc(Nc5ccccc5)nc(Nc5ccc(Cl)cc5)n4)cc3)nc(N)c2C#N)cc1`: the GI50 in test [1] was 2.03 µM; in test [2], 0.857 µM; in [3] it was greater than 24.8 µM; in [4], 1.13 µM; in test [5], 0.737 µM; in test [6], 1.09 µM. In addition, the GI50 in [7] was 0.761 µM; in [8], 1.81 µM; in [9], 1.52 µM; in test [10] it was 0.974 µM. The TGI in [1] was greater than 50 µM; in test [2] it was 1.77 µM; in [3], greater than 50 µM; in test [4], 2.86 µM; in test [5], 2.71 µM; in [6], 2.66 µM. Also, the TGI is 1.52 µM in test [7], greater than 50 µM in [8], greater than 18.6 µM in [9] and 1.79 µM in test [10].

The values are drawn from PubChem BioAssay (NCI).
